Among the data in patent US9458176B2, “Tetrahydroimidazo(1,5-D)[1,4]oxazepine derivative” (Eisai R&D Management Co., Ltd., priority 2013, dated 2016) are Minimum effective dose and IC50 values, retold here.

As a reminder, the pIC50 is −log10 of the IC50, conventionally taken in molar units. A higher pIC50 goes with a small IC50.

pIC50: −log10 of the molar value. Marks after values point to notes of the source that are not given here.

Sequence of human mGluR2 (Q14416 19-872): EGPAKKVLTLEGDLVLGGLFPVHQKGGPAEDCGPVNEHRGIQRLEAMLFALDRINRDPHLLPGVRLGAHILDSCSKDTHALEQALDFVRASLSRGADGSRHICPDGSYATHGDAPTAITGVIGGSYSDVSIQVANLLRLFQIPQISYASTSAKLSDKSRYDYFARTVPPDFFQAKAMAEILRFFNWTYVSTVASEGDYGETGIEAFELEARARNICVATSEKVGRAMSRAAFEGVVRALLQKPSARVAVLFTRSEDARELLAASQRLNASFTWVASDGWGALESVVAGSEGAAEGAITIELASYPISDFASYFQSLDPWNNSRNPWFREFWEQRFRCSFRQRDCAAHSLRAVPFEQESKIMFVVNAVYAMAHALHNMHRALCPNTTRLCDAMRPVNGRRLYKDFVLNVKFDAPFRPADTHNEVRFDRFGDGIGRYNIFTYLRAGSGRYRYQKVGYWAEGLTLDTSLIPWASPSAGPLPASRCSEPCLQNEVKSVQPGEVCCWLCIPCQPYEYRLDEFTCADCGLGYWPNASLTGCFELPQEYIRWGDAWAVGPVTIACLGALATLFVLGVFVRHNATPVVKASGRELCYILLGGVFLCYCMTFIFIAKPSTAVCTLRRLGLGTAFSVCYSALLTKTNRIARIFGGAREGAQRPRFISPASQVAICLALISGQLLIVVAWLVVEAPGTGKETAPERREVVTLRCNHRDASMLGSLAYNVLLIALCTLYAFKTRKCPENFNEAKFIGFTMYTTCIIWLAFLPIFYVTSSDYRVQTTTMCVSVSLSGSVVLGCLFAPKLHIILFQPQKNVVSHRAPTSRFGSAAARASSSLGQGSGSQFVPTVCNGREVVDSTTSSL

The test system of one assay is Long-Evans rats. The assay is described as follows: Novel Object Recognition (NOR) test in rats with scopolamine-induced cognitive impairment. It counts as in vivo, rat. To be noted: male Long-Evans rats, scopolamine 0.3 mg/kg i.p.; statistically significant difference in discrimination index vs scopolamine alone group. The protocol:
Six-week old male Long-Evans rats were used for this test. For 2 days before starting the test, the rats were acclimated to experimental operations such as administration and a test device (that is, a black or gray plastic cage with a width of 40 cm, a depth of 30 cm and a height of 45 cm). Each test compound was dissolved in a 0.1 N hydrochloric acid to be orally administered. Thirty minutes after the administration, scopolamine hydrobromide was intraperitoneally administered at a 0.3 mg/kg dose, so as to induce cognitive impairment. After another 30 minutes, each rat was acclimated in the test device for 3 minutes, and thereafter, two blocks in the same shape were put in the test device as acquisition trial, and exploring time for each block was measured for 5 minutes. Two hours after the acquisition trial, the rat was acclimated in the test device for 3 minutes, and thereafter, the same block as those used in the acquisition trial and a new block in a different shape were put in the cage for retention trial. The exploring time for each block was measured for 3 minutes, and a ratio of the exploring time for the newly used block to the sum of the exploring times for the respective blocks was calculated as a discrimination index. The thus obtained discrimination indexes were compared among a group of rats to which a medium alone was administered (medium group), a group of rats to which scopolamine alone was administered (scopolamine alone group) and a group of rats to which both the test compound and scopolamine were administered, so as to evaluate the action of the test compound on the novel object recognition function (cognitive function) of the rats.
Each discrimination index was shown as an average and a standard error. The statistical significance between the medium group and the scopolamine alone group was analyzed by the independent t-test. The statistical significance between the scopolamine alone group and each sample group was analyzed by one-way analysis of variance and then by Dunnett's multiple comparison test. The significance level was set to 5% on both sides. […] The analysis was carried out by using Prism 5 for Windows for Japanese, ver. 5.03.
A minimum effective dose at which a statistically significant difference was found between a group suffering from the cognitive impairment induced by scopolamine and a group treated with each compound is shown in Table 10.
Consider `COc1cc(-c2nc(-c3cc(C)nc(C)c3)c3n2C[C@@H](C)OCC3)ccc1Cl` [Example 1, (R)-3-(4-chloro-3-methoxyphenyl)-1-(2,6-dimethylpyridin-4-yl)-6-methyl-5,6,8,9-tetrahydroimidazo[1,5-d][1,4]oxazepine], for which the Minimum effective dose is 3 mg/kg, p.o.
The same measure, in the same setting: the value for `COc1cc(-c2nc(-c3cc(C)nc(C)c3)c3n2C[C@@H](C)OCC3)ccc1C(F)(F)F` [Example 7, (R)-1-(2,6-dimethylpyridin-4-yl)-3-(3-methoxy-4-(trifluoromethyl)phenyl)-6-methyl-5,6,8,9-tetrahydroimidazo[1,5-d][1,4]oxazepine] was 0.3 mg/kg, p.o; that for `COc1cc(-c2nc(-c3cc(C)nc(C)c3)c3n2C[C@@H](CF)OCC3)ccc1Cl` [Example 11, (S)-3-(4-chloro-3-methoxyphenyl)-1-(2,6-dimethylpyridin-4-yl)-6-fluoromethyl-5,6,8,9-tetrahydroimidazo[1,5-d][1,4]oxazepine] was >1* mg/kg, p.o.
Same read-out and setting: the value for `Cc1cc(-c2nc(-c3ccc(OC(F)F)c(C)c3)n3c2CCO[C@H](C)C3)cc(C)n1` [Example 14, (R)-3-(4-(difluoromethoxy)-3-methylphenyl)-1-(2,6-dimethylpyridin-4-yl)-6-methyl-5,6,8,9-tetrahydroimidazo[1,5-d][1,4]oxazepine] was 1 mg/kg, p.o.

The target in another assay is human mGluR2 (Homo sapiens (Human), UniProt Q14416). The assay is described as follows: [35S]GTPγS binding assay (Affinity to mGluR2). It counts as biochemical. To be noted: cell membrane fraction of HEK293 cells stably expressing human mGluR2; glutamic acid 10 μM. In short, it runs like this:
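Membranes from HEK293 cells stably co-expressing human mGluR2 and SLC1A3 (1.8–3 μg protein) preincubated with compound 30 min at RT, then stimulated with 10 μM glutamate 15 min; [35S]GTPγS (0.8 kBq) with WGA-SPA beads 1 h, buffer with 3 μM GDP, 100 mM NaCl, 1 mM MgCl2. IC50 from inhibition of glutamate-specific binding.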
For orientation: Binding of GTPγS marks nucleotide exchange on a G protein.
In the case of `COc1cc(-c2nc(-c3cc(C)nc(C)c3)c3n2C[C@@H](C)OCC3)ccc1Cl` [Example 1, (R)-3-(4-chloro-3-methoxyphenyl)-1-(2,6-dimethylpyridin-4-yl)-6-methyl-5,6,8,9-tetrahydroimidazo[1,5-d][1,4]oxazepine], the pIC50 was 8.00.
The same measure, in the same setting: next, `COc1cc(-c2nc(-c3cc(C)nc(C)c3)c3n2C[C@@H](C)OCC3)ccc1C(F)(F)F` [Example 7, (R)-1-(2,6-dimethylpyridin-4-yl)-3-(3-methoxy-4-(trifluoromethyl)phenyl)-6-methyl-5,6,8,9-tetrahydroimidazo[1,5-d][1,4]oxazepine]: 8.38.
Still for that read-out and setting: next, `COc1cc(-c2nc(-c3cc(C)nc(C)c3)c3n2C[C@@H](CF)OCC3)ccc1Cl` [Example 11, (S)-3-(4-chloro-3-methoxyphenyl)-1-(2,6-dimethylpyridin-4-yl)-6-fluoromethyl-5,6,8,9-tetrahydroimidazo[1,5-d][1,4]oxazepine]: 7.94.
The same measure, in the same setting: next, `Cc1cc(-c2nc(-c3ccc(OC(F)F)c(C)c3)n3c2CCO[C@H](C)C3)cc(C)n1` [Example 14, (R)-3-(4-(difluoromethoxy)-3-methylphenyl)-1-(2,6-dimethylpyridin-4-yl)-6-methyl-5,6,8,9-tetrahydroimidazo[1,5-d][1,4]oxazepine]: 8.25.

Staying with this assay, now noted: cell membrane fraction of HEK293 cells stably expressing human mGluR2; glutamic acid 10 μM; inhibition of specific [35S]GTPγS binding.
As to `COc1cc(-c2nc(-c3cc(C)nc(CF)c3)c3n2C[C@@H](C)OCC3)ccc1C(F)(F)F` [Example 200], the negative logarithm of the IC50 (pIC50) was 8.36.
For `COc1cc(-c2nc(-c3cc(C)nc(CF)c3)c3n2C[C@@H](CF)OCC3)ccc1C(F)(F)F` [Example 201], the pIC50 is 8.62. This pIC50 lies 0.26 log units higher than the previous one.
Take `Cc1cc(-c2nc(-c3ccc(OC(F)(F)F)c(F)c3)n3c2CCO[C@H](CF)C3)cc(CF)n1` [Example 202]: the pIC50 is 7.85.
Still for that read-out and setting: next, `Cc1cc(-c2nc(-c3ccc(OC(F)(F)F)c(C#N)c3)n3c2CCO[C@H](C)C3)cc(CF)n1` [Example 203]: 8.31; `Cc1cc(-c2nc(-c3ccc(OC(F)(F)F)c(C)c3)n3c2CCO[C@H](C)C3)cc(CF)n1` [Example 204]: 8.40; `Cc1cc(-c2nc(-c3ccc(OC4CC4)c(Cl)c3)n3c2CCO[C@H](C)C3)cc(CF)n1` [Example 205]: 8.28.
Still for that read-out and setting: next, `Cc1cc(-c2nc(-c3ccc(OC(F)(F)F)c(F)c3)n3c2CCO[C@H](C)C3)cc(CF)n1` [Example 206]: 7.73; `Cc1cc(-c2nc(-c3ccc(OC(F)F)c(C)c3)n3c2CCO[C@H](CF)C3)cc(CF)n1` [Example 207]: 8.22.
The same measure, in the same setting: the value for `Cc1cc(-c2nc(-c3ccc(OC4CC4)c(C)c3)n3c2CCO[C@H](C)C3)cc(CF)n1` [Example 208] was 8.33; that for `COc1cc(-c2nc(-c3cc(C)nc(CF)c3)c3n2C[C@@H](CF)OCC3)ccc1OC(F)F` [Example 209] was 8.29; that for `COc1ccc(-c2nc(-c3cc(C)nc(CF)c3)c3n2C[C@@H](C)OCC3)cc1OC(F)(F)F` [Example 210] was 8.33.
`Cc1cc(-c2nc(-c3ccc(OC(F)(F)F)c(CF)c3)n3c2CCOCC3)cc(C)n1` [Example 211] showed a negative-log IC50 (pIC50) of 7.57.
In the case of `Cc1cc(-c2nc(-c3ccc(Cl)c(OC(F)F)c3)n3c2CCOCC3)cc(C)n1` [Example 212], the negative logarithm of the IC50 (pIC50) was 7.14.
In turn, `CCOc1cc(-c2nc(-c3cc(C)nc(C)c3)c3n2CCOCC3)ccc1CC` [Example 213] gave a negative logarithm of the IC50 (pIC50) of 7.97.
`CCOc1cc(-c2nc(-c3ccnc(C)c3)c3n2CCOCC3)ccc1CC` [Example 214] had a pIC50 of 7.68.
In turn, `Cc1cc(-c2nc(-c3ccc(OC(F)F)c(Cl)c3)n3c2CCOCC3)cc(C)n1` [Example 215] had a pIC50 of 7.24.
As for `CCOc1ccc(-c2nc(-c3cc(C)nc(C)c3)c3n2CCOCC3)cc1Cl` [Example 216], the negative logarithm of the IC50 (pIC50) was 7.32.
Regarding `Cc1cc(-c2nc(-c3ccc(OCC4CC4)c(Cl)c3)n3c2CCOCC3)cc(C)n1` [Example 217], the negative-log IC50 (pIC50) was 7.22.
Turning to `Cc1cc(-c2nc(-c3ccc(OCC(F)F)c(Cl)c3)n3c2CCOCC3)cc(C)n1` [Example 218], the pIC50 was 7.10.
On the same count and under the same terms, the value for `CCOc1cc(-c2nc(-c3ccnc(C)c3)c3n2C[C@@H](C)OCC3)ccc1CC` [Example 219] was 8.10; that for `CCOc1cc(-c2nc(-c3cc(C)nc(C)c3)c3n2C[C@@H](C)OCC3)ccc1CC` [Example 220] was 8.23.
Same read-out and setting: the value for `CCc1ccc(-c2nc(-c3ccnc(C)c3)c3n2C[C@@H](C)OCC3)cc1OCC1CC1` [Example 221] was 7.57; that for `CCc1ccc(-c2nc(-c3cc(C)nc(C)c3)c3n2C[C@@H](C)OCC3)cc1OCC1CC1` [Example 222] was 7.76; that for `CCOc1cc(-c2nc(-c3ccnc(C)c3)c3n2C[C@@H](C)OCC3)ccc1C` [Example 223] was 7.78.
Compound `Cc1cc(-c2nc(-c3ccc(C)c(OCC4CC4)c3)n3c2CCO[C@H](C)C3)ccn1` [Example 224] gave a negative logarithm of the IC50 (pIC50) of 7.30. Compared with the last compound, the pIC50 is 0.48 log units lower.
Same read-out and setting: next, `CCOc1cc(-c2nc(-c3cc(C)nc(C)c3)c3n2C[C@@H](C)OCC3)ccc1C` [Example 225]: 8.41; `Cc1cc(-c2nc(-c3ccc(C)c(OCC4CC4)c3)n3c2CCO[C@H](C)C3)cc(C)n1` [Example 226]: 7.98; `Cc1cc(-c2nc(-c3ccc(C)c(OCC(C)C)c3)n3c2CCO[C@H](C)C3)cc(C)n1` [Example 227]: 7.66.
Turning to `Cc1cc(-c2nc(-c3ccc(C)c(OCC4CCOCC4)c3)n3c2CCO[C@H](C)C3)cc(C)n1` [Example 228], the pIC50 is 7.09.
The same measure, in the same setting: the value for `Cc1cc(-c2nc(-c3ccc(OC(F)(F)F)c(CO)c3)n3c2CCO[C@H](C)C3)cc(C)n1` [Example 229] was 7.74.
The same measure, in the same setting: next, `Cc1cc(-c2nc(-c3ccc(OC(F)(F)F)c(CO)c3)n3c2CCO[C@H](C)C3)ccn1` [Example 230]: 7.70; `Cc1cc(-c2nc(-c3ccc(OC(F)(F)F)c(CF)c3)n3c2CCO[C@H](C)C3)cc(C)n1` [Example 231]: 8.62; `Cc1cc(-c2nc(-c3ccc(OC4COC4)c(Cl)c3)n3c2CCO[C@H](C)C3)cc(C)n1` [Example 232]: 8.01.
Same read-out and setting: the value for `Cc1cc(-c2nc(-c3ccc(OC(F)F)c(Cl)c3)n3c2CCO[C@H](CF)C3)cc(C)n1` [Example 233] was 8.70.
As for `Cc1cc(-c2nc(-c3ccc(OC(F)F)c(CF)c3)n3c2CCO[C@H](C)C3)cc(C)n1` [Example 234], the pIC50 was 8.72.
On the same count and under the same terms, next, `Cc1cc(-c2nc(-c3ccc(OC(F)F)c(CO)c3)n3c2CCO[C@H](C)C3)cc(C)n1` [Example 235]: 7.66.
`Cc1cc(-c2nc(-c3ccc(OC(F)F)c(CF)c3)n3c2CCO[C@H](C)C3)ccn1` [Example 236] gave a pIC50 of 8.54.
Take `Cc1cc(-c2nc(-c3ccc(OC(F)F)c(CO)c3)n3c2CCO[C@H](C)C3)ccn1` [Example 237]: the pIC50 was 7.52. This pIC50 lies 1.02 log units lower than the previous one.
With `Cc1cc(-c2nc(-c3ccc(Cl)c(CF)c3)n3c2CCO[C@H](C)C3)cc(C)n1` [Example 238], the pIC50 is 7.43.
For `Cc1cc(-c2nc(-c3ccc(OCCF)c(Cl)c3)n3c2CCO[C@H](C)C3)cc(C)n1` [Example 239], the negative logarithm of the IC50 (pIC50) is 7.92.
For the compound `COc1cc(-c2nc(-c3ccnc(C)c3)c3n2C[C@@H](C)OCC3)ccc1C(C)(F)F` [Example 240], the negative logarithm of the IC50 (pIC50) was 7.33.
Take `CCOc1ccc(-c2nc(-c3cc(C)nc(C)c3)c3n2C[C@@H](C)OCC3)cc1C` [Example 241]: the pIC50 is 8.54.
In the case of `Cc1cc(-c2nc(-c3ccc(OC(C)C)c(C)c3)n3c2CCO[C@H](C)C3)cc(C)n1` [Example 242], the pIC50 is 8.62.
With `CCOc1ccc(-c2nc(-c3cc(C)nc(C)c3)c3n2C[C@@H](CF)OCC3)cc1C` [Example 243], the pIC50 was 8.77. The pIC50 values of the last two compounds are within 0.2 log units of each other.
The same measure, in the same setting: the value for `Cc1cc(-c2nc(-c3ccc(OC(C)C)c(C)c3)n3c2CCO[C@H](CF)C3)cc(C)n1` [Example 244] was 8.74.
Still for that read-out and setting: the value for `COc1ccc(-c2nc(-c3cc(C)nc(C)c3)c3n2C[C@@H](CF)OCC3)cc1C` [Example 245] was 8.28.
